# Laboratory results published in ChEMBL document CHEMBL4308841, “Synthesis, in vitro antiproliferative activity, and kinase inhibitory effects of pyrazole-containing diarylureas and diarylamides” (Eur J Med Chem, 2018).
# Assays:
# MDA-MB-231 [1] = assay: Growth inhibition of human MDA-MB-231 cells assessed as cell growth at 100 uM incubated for 48 hrs by sulforhodamine B assay relative to control; assay type: functional; conditions: MDA-MB-231, 48 h, read-out: Activity
# 786-0 [2] = assay: Growth inhibition of human 786-0 cells assessed as cell growth at 0.01 uM incubated for 48 hrs by sulforhodamine B assay relative to control; assay type: functional; conditions: 786-0, 48 h, read-out: Activity
# HL-60(TB) [3] = assay: Growth inhibition of human HL-60(TB) cells assessed as cell growth at 100 uM incubated for 48 hrs by sulforhodamine B assay relative to control; assay type: functional; conditions: HL-60, 48 h, read-out: Activity
# BT-549 [4] = assay: Growth inhibition of human BT549 cells assessed as cell growth at 0.01 uM incubated for 48 hrs by sulforhodamine B assay relative to control; assay type: functional; conditions: BT-549, 48 h, read-out: Activity
# 786-0 [5] = assay: Growth inhibition of human 786-0 cells incubated for 48 hrs by sulforhodamine B assay; assay type: functional, cell-based; conditions: 786-0, 48 h
# HL-60(TB) [6] = assay: Growth inhibition of human HL-60(TB) cells assessed as cell growth at 0.01 uM incubated for 48 hrs by sulforhodamine B assay relative to control; assay type: functional; conditions: HL-60, 48 h, read-out: Activity
# SNB-19 = assay: Growth inhibition of human SNB19 cells assessed as cell growth at 100 uM incubated for 48 hrs by sulforhodamine B assay relative to control; assay type: functional; conditions: SNB-19, 48 h, read-out: Activity
# SN12C = assay: Growth inhibition of human SN12C cells incubated for 48 hrs by sulforhodamine B assay; assay type: functional, cell-based
# MDA-MB-468 = assay: Growth inhibition of human MDA-MB-468 cells assessed as cell growth at 0.1 uM incubated for 48 hrs by sulforhodamine B assay relative to control; assay type: functional; conditions: MDA-MB-468, 48 h, read-out: Activity
# HCC 2998 = assay: Growth inhibition of human HCC2998 cells assessed as cell growth at 0.1 uM incubated for 48 hrs by sulforhodamine B assay relative to control; assay type: functional; conditions: HCC 2998, 48 h, read-out: Activity
# NCI-H460 = assay: Growth inhibition of human NCI-H460 cells incubated for 48 hrs by sulforhodamine B assay; assay type: functional, cell-based; conditions: NCI-H460, 48 h
# MDA-MB-435 = assay: Growth inhibition of human MDA-MB-435 cells assessed as cell growth at 1 uM incubated for 48 hrs by sulforhodamine B assay relative to control; assay type: functional; conditions: MDA-MB-435, 48 h, read-out: Activity
# OVCAR-4 = assay: Growth inhibition of human OVCAR4 cells assessed as cell growth at 0.1 uM incubated for 48 hrs by sulforhodamine B assay relative to control; assay type: functional; conditions: OVCAR-4, 48 h, read-out: Activity
# PC-3 = assay: Growth inhibition of human PC3 cells assessed as cell growth at 100 uM incubated for 48 hrs by sulforhodamine B assay relative to control; assay type: functional; conditions: PC-3, 48 h, read-out: Activity
# NCI-H226 = assay: Growth inhibition of human NCI-H226 cells assessed as cell growth at 0.1 uM incubated for 48 hrs by sulforhodamine B assay relative to control; assay type: functional; conditions: NCI-H226, 48 h, read-out: Activity
# ACHN = assay: Growth inhibition of human ACHN cells assessed as cell growth at 0.01 uM incubated for 48 hrs by sulforhodamine B assay relative to control; assay type: functional; conditions: read-out: Activity
# MCF7 = assay: Growth inhibition of human MCF7 cells assessed as cell growth at 100 uM incubated for 48 hrs by sulforhodamine B assay relative to control; assay type: functional; conditions: MCF7, 48 h, read-out: Activity
# CAKI-1 = assay: Growth inhibition of human Caki1 cells incubated for 48 hrs by sulforhodamine B assay; assay type: functional, cell-based; conditions: CAKI-1, 48 h
# HL-60(TB) [7] = assay: Growth inhibition of human HL-60(TB) cells incubated for 48 hrs by sulforhodamine B assay; assay type: functional, cell-based; conditions: HL-60, 48 h
# OVCAR-5 = assay: Growth inhibition of human OVCAR5 cells incubated for 48 hrs by sulforhodamine B assay; assay type: functional, cell-based; conditions: OVCAR-5, 48 h
# NCI-H322M = assay: Growth inhibition of human NCI-H322M cells assessed as cell growth at 0.01 uM incubated for 48 hrs by sulforhodamine B assay relative to control; assay type: functional; conditions: read-out: Activity
# SF-295 = assay: Growth inhibition of human SF295 cells assessed as cell growth at 1 uM incubated for 48 hrs by sulforhodamine B assay relative to control; assay type: functional; conditions: SF-295, 48 h, read-out: Activity
# SW-620 = assay: Growth inhibition of human SW620 cells assessed as cell growth at 0.1 uM incubated for 48 hrs by sulforhodamine B assay relative to control; assay type: functional; conditions: SW-620, 48 h, read-out: Activity
# MDA-MB-231 [8] = assay: Growth inhibition of human MDA-MB-231 cells incubated for 48 hrs by sulforhodamine B assay; assay type: functional, cell-based; conditions: MDA-MB-231, 48 h
# BT-549 [9] = assay: Growth inhibition of human BT549 cells incubated for 48 hrs by sulforhodamine B assay; assay type: functional, cell-based; conditions: BT-549, 48 h
# T47D = assay: Growth inhibition of human T47D cells assessed as cell growth at 1 uM incubated for 48 hrs by sulforhodamine B assay relative to control; assay type: functional; conditions: read-out: Activity
# RPMI-8226 = assay: Growth inhibition of human RPMI8226 cells assessed as cell growth at 0.1 uM incubated for 48 hrs by sulforhodamine B assay relative to control; assay type: functional; conditions: RPMI-8226, 48 h, read-out: Activity
# RXF 393 = assay: Growth inhibition of human RXF393 cells assessed as cell growth at 1 uM incubated for 48 hrs by sulforhodamine B assay relative to control; assay type: functional; conditions: RXF 393, 48 h, read-out: Activity
# [10] = read-out: LC50 (the source's name)
# [11] = read-out: pLC50 (the source's name) (converted)
compound,measurement,setting,value
COc1cc(Cl)cc(-c2nn(-c3cccc(NC(=O)Nc4ccc(Cl)c(C(F)(F)F)c4)c3)cc2-c2ccncc2)c1,growth at 100 µM,MDA-MB-231 [1],-88%
same,growth at 0.01 µM,786-0 [2],96%
same,growth at 100 µM,HL-60(TB) [3],-22%
same,growth at 0.01 µM,BT-549 [4],92%
same,GI50,786-0 [5]; read-out: GI50,1.59 µM
same,CC50,786-0 [5]; [10],15.2 µM
same,TGI,786-0 [5]; read-out: TGI,42.7 µM
same,GI50,786-0 [5]; read-out: pGI50 (converted),1.58 µM
same,CC50,786-0 [5]; [11],15.1 µM
same,TGI,786-0 [5]; read-out: pTGI (converted),9.77 µM
same,growth at 0.01 µM,HL-60(TB) [6],96%
same,growth at 100 µM,SNB-19,-25%
same,GI50,SN12C; read-out: GI50,1.56 µM
same,LC50,SN12C; read-out: LC50,> 100 µM
same,TGI,SN12C; read-out: TGI,82.1 µM
same,GI50,SN12C; read-out: pGI50 (converted),1.55 µM
same,LC50,SN12C; read-out: pLC50 (converted),> 100 µM
same,TGI,SN12C; read-out: pTGI (converted),8.13 µM
same,growth at 0.1 µM,MDA-MB-468,91%
same,growth at 0.1 µM,HCC 2998,94%
same,GI50,NCI-H460; read-out: GI50,0.77 µM
same,CC50,NCI-H460; [10],4.48 µM
same,TGI,NCI-H460; read-out: TGI,40 µM
same,CC50,NCI-H460; [11],44.7 µM
same,growth at 1 µM,MDA-MB-435,81%
same,growth at 0.1 µM,OVCAR-4,97%
same,growth at 100 µM,PC-3,-15%
same,growth at 0.1 µM,NCI-H226,96%
same,growth at 0.01 µM,ACHN,91%
same,growth at 100 µM,MCF7,-8%
same,GI50,CAKI-1; read-out: GI50,0.615 µM
same,CC50,CAKI-1; [10],> 100 µM
same,TGI,CAKI-1; read-out: TGI,94.3 µM
same,GI50,CAKI-1; read-out: pGI50 (converted),0.813 µM
same,CC50,CAKI-1; [11],> 100 µM
same,TGI,CAKI-1; read-out: pTGI (converted),10.2 µM
same,GI50,HL-60(TB) [7]; read-out: GI50,1.55 µM
same,LC50,HL-60(TB) [7]; read-out: LC50,> 100 µM
same,TGI,HL-60(TB) [7]; read-out: TGI,55.3 µM
same,GI50,HL-60(TB) [7]; read-out: pGI50 (converted),1.66 µM
same,LC50,HL-60(TB) [7]; read-out: pLC50 (converted),> 100 µM
same,TGI,HL-60(TB) [7]; read-out: pTGI (converted),5.5 µM
same,GI50,OVCAR-5; read-out: GI50,2.13 µM
same,CC50,OVCAR-5; [10],3.01 µM
same,TGI,OVCAR-5; read-out: TGI,71.5 µM
same,GI50,OVCAR-5; read-out: pGI50 (converted),2.14 µM
same,CC50,OVCAR-5; [11],30.2 µM
same,TGI,OVCAR-5; read-out: pTGI (converted),28.8 µM
same,growth at 0.01 µM,NCI-H322M,96%
same,growth at 1 µM,SF-295,31%
same,growth at 0.1 µM,SW-620,96%
same,GI50,MDA-MB-231 [8]; read-out: GI50,1.44 µM
same,CC50,MDA-MB-231 [8]; [10],9.52 µM
same,TGI,MDA-MB-231 [8]; read-out: TGI,37.4 µM
same,GI50,MDA-MB-231 [8]; read-out: pGI50 (converted),1.45 µM
same,CC50,MDA-MB-231 [8]; [11],9.77 µM
same,TGI,MDA-MB-231 [8]; read-out: pTGI (converted),3.72 µM
same,GI50,BT-549 [9]; read-out: GI50,2.38 µM
same,CC50,BT-549 [9]; [10],25.8 µM
same,TGI,BT-549 [9]; read-out: TGI,65.5 µM
same,GI50,BT-549 [9]; read-out: pGI50 (converted),2.4 µM
same,CC50,BT-549 [9]; [11],28.8 µM
same,TGI,BT-549 [9]; read-out: pTGI (converted),6.61 µM
same,growth at 1 µM,T47D,58%
same,growth at 0.1 µM,RPMI-8226,100%
same,growth at 1 µM,RXF 393,78%
